Test results from paper PMC8041304, “Halogen Atoms in the Protein–Ligand System. Structural and Thermodynamic Studies of the Binding of Bromobenzotriazoles by the Catalytic Subunit of Human Protein Kinase CK2” (The Journal of Physical Chemistry. B, 2021).
Several values for one entry are separate records, joined by “and”; a condition that tells them apart may be missing. Identical values can stand only once. Like-named read-outs stand apart in the source and are kept apart here.

Key:
[1] = molecular target: T1, hCK2α (Homo sapiens, UniProt P68400); parameters: method as in PMID 32162783; conditions: cited from earlier work
T1 construct: made in house

[2] = molecular target: T1, hCK2α; assay: Isothermal titration calorimetry (NanoITC); type: binding; conditions: pH 8
Method: (§1) In all experiments the maximum ligand concentration of 10 μM was used to minimize a possible contribution of the secondary binding site.

[3] = molecular target: T1, hCK2α; assay: Fluorescence-monitored thermal denaturation (nanoDSF) of hCK2α complexes; type: binding; conditions: protein 2.5 μM, ligand 25 μM; for Tm (°C) at pH 7.5: hCK2α in complex with ligand; for ΔTm (°C) at pH 7.5: unfolding temperature with ligand minus without
Method: The samples were loaded into nanoDSF grade Standard Capillaries (NanoTemper Technologies) and analyzed using the Prometheus NT.48 nanoDSF device (NanoTemper Technologies). Thermal unfolding of the protein was monitored using a linear thermal ramp (1 °C·min^–1; 20–80 °C) with an excitation power of 30%.
This prompted us to measure the thermal stabilities of hCK2α and its complexes at pH 7.5 by fluorescence-monitored thermal denaturation (nanoDSF) (Table 2).

[4] = Density measurements: partial molar volume and thermal expansivity of the solute; type: physicochemical; conditions: 50 mM phosphate buffer pH 11; for α2^0, thermal volumetric expansivity of the solute: 20, 25, 30 °C; for V2^0, partial molar volume: 25 °C
Method: Partial molar volumes were estimated with a density meter Anton Paar DMA 5000 M at 20, 25, and 30 °C from the concentration–density dependency for compounds dissolved in 50 mM phosphate buffer (pH 11). The experimental procedure and the data analysis method were described previously.[36],[57],[58] The partial molar volume at 25 °C (V2^0) and thermal volumetric expansivity of the solute (α2^0 = ∂V2^0/∂T) were estimated globally from two independent dilution series. The density of pure solvent (d0) was extrapolated individually for each experimental condition (i.e., temperature and buffer preparation). The change of d0 with temperature was further used to determine thermal volumetric expansivity coefficient of the bulk buffer according to the formula α0 = −(∂d0/∂T)/d0.
According to the Lum, Chandler, and Weeks (LCW) theory, the hydrophobic interactions scale for solutes of subnanometer size with the volume of the molecule rather than its surface.[61] We have recently proposed partial molar volume as the extensive parameter to describe both the solute volume and the solute-induced reorganization of the solvation shell.[36],[57],[58],[62],[63] By analyzing density data at three temperatures (20, 25, and 30 °C), we could estimate the partial molar volume of the ligand (V2^0) and the bulk solvent density (d0(T)). We could further separate the thermal expansivity coefficient of the bulk solvent (α0) and the apparent expansivity of the solute (α2^0). The latter parameter is comprised mainly of the thermal expansion effect of the hydration shell. The values of α0 fell within the narrow range of (26.9 ± 1.3) × 10^–5 K^–1, which is close to the literature data for water (25.72 × 10^–5 K^–1 at 25 °C).[64] […] The solute thermal expansivity (α2^0), together with the change of isobaric heat capacity upon ligand binding (ΔCp,bind), has already been associated with the properties of the solvation layer.[65],[66] Importantly, α2^0 is proportional to the partial molar volume V2^0 (Figure 3D). So, V2^0 may be another descriptor of hydrophobic interactions. Consequently, the volume-normalized solute expansivity coefficient (α = α2^0/V2^0) is almost the same for all studied bromobenzotriazoles (232 ± 22 × 10^–5 K^–1). Importantly, this value substantially exceeds the thermal expansivity coefficient of the bulk buffer (α0 = 26.9 ± 1.3 × 10^–5 K^–1), clearly confirming that water organization changes with temperature more near the solute surface than in the bulk.

[5] = parameters: method as in PMID 22632480; conditions: pH 8.0; cited from earlier work
[6] = parameters: method as in doi:10.1016/j.molliq.2019.111527; conditions: calculated water–octanol partition coefficient; cited from earlier work
[7] = molecular target: T1, hCK2α; parameters: method as in PMID 25891901; conditions: cited from earlier work
[8] = parameters: method as in PMID 32162783; conditions: HPLC-derived hydrophobicity; cited from earlier work
[9] = molecular target: T1, hCK2α; assay: Isothermal titration calorimetry (MicroCal iTC200), reverse titration; type: binding; conditions: for ΔGbind, free energy of binding: ITC; for ΔSrt, entropic term for loss of ligand rotational and translational degrees of freedom: calculated from ligand molecular mass; for Ts, temperature at which the entropy change upon ligand binding is zero: estimated from the linear fit of ΔS(T); for ΔSHE(Ts), hydrophobic-effect contribution to the entropy change upon binding: ≈ 1.35∙ΔCp,bind∙ln(Ts/386)
Method: ITC measurements were carried out using the MicroCal iTC200 (Malvern) calorimeter. The hCK2α samples were diluted to the required protein concentration with the 25 mM Tris-HCl pH 8 buffer containing 0.5 M NaCl. Stock ligand solutions were diluted with the appropriate DMSO volume prior to mixing with the buffer to obtain the required ligand concentration and a final DMSO content of 1%. Due to the limited solubility of halogenated benzotriazoles, all titration experiments were performed in the reverse mode, in which buffered ligand solution was placed in the calorimetric cell and titrated with the protein solution.[35]
as §1

[10] = molecular target: T1, hCK2α; parameters: method as in PMID 23155426; conditions: pH 7.5; cited from earlier work
[11] = molecular target: T1, hCK2α; parameters: method as in earlier work; conditions: ref 6 (of the supplement); read-out: KATP, dissociation constant of ATP; cited from earlier work
[12] = iTC200, 20 °C, pH 8, independent experiments separately evaluated
[13] = iTC200, 25 °C, pH 8, independent experiments separately evaluated
[14] = iTC200, 30 °C, pH 8, independent experiments separately evaluated
[15] = iTC200, 35 °C, pH 8, independent experiments separately evaluated

T1 sequence (P68400 whole entry): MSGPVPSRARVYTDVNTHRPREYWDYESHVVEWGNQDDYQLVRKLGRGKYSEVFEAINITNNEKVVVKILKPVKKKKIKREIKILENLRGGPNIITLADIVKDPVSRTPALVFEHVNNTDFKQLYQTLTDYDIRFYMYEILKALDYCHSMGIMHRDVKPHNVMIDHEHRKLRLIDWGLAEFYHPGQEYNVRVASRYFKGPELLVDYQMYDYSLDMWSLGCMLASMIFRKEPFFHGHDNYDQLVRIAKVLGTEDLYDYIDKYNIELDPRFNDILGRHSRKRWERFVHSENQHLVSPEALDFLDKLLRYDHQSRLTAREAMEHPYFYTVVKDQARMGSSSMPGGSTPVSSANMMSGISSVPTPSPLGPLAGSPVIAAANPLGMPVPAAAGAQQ

Question: Which “affinity to hCK2α among the four isomeric dibromo–dichlorobenzotriazoles” value [1] does the source give for `Clc1c(Br)c(Br)c(Cl)c2[nH]nnc12` [5,6-Br2-4,7-Cl2Bt] here?
Answer: The value was “highest affinity”.

Question: For `Brc1cc2nn[nH]c2cc1Br` [5,6-Br2Bt, 5,6-bromobenzotriazole], which Kd ([2]; 15 °C) is on record?
Answer: The Kd was 0.059 ± 0.049 µM.

Question: What about the ΔG ([2]; 15 °C) of the same compound?
Answer: Its ΔG is -9.54 ± 0.478 kcal/mol.

Question: And the ΔH ([2]; 15 °C)?
Answer: The ΔH was -13.5 ± 1.12 kcal/mol.

Question: What about the ΔS ([2]; 15 °C) of the same compound?
Answer: The ΔS was -58 ± 18 J·mol-1·K-1.

Question: And the Kd ([2]; 20 °C)?
Answer: The Kd was 0.06 ± 0.054 µM.

Question: And the ΔG ([2]; 20 °C)?
Answer: The ΔG was -9.7 ± 0.526 kcal/mol.

Question: What about the ΔH ([2]; 20 °C) of the same compound?
Answer: The ΔH was -14.8 ± 1.34 kcal/mol.

Question: And the ΔS ([2]; 20 °C)?
Answer: Its ΔS is -73 ± 21 J·mol-1·K-1.

Question: What about the Kd ([2]; 25 °C) of the same compound?
Answer: Its Kd is 0.046 ± 0.026 µM.

Question: What about the ΔG ([2]; 25 °C) of the same compound?
Answer: Its ΔG is -10 ± 0.335 kcal/mol.

Question: And the ΔH ([2]; 25 °C)?
Answer: The ΔH was -16.9 ± 0.765 kcal/mol.

Question: And the ΔS ([2]; 25 °C)?
Answer: Its ΔS is -97 ± 12 J·mol-1·K-1.

Question: What about the Kd ([2]; 30 °C) of the same compound?
Answer: Its Kd is 0.15 ± 0.12 µM.

Question: What about the ΔG ([2]; 30 °C) of the same compound?
Answer: The ΔG was -9.44 ± 0.454 kcal/mol.

Question: And the ΔH ([2]; 30 °C)?
Answer: Its ΔH is -18.3 ± 0.693 kcal/mol.

Question: And the ΔS ([2]; 30 °C)?
Answer: The ΔS was -122 ± 11 J·mol-1·K-1.

Question: And the Kd ([2]; 35 °C)?
Answer: The Kd was 0.093 ± 0.049 µM.

Question: And the ΔG ([2]; 35 °C)?
Answer: Its ΔG is -9.92 ± 0.311 kcal/mol.

Question: What about the ΔH ([2]; 35 °C) of the same compound?
Answer: The ΔH was -20.8 ± 1.86 kcal/mol.

Question: And the ΔS ([2]; 35 °C)?
Answer: The ΔS was -148 ± 26 J·mol-1·K-1.

Question: What about the “Tm (°C) at pH 7.5” value [3] of the same compound?
Answer: Its value is 52.96 ± 0.05 °C.

Question: What about the “ΔTm (°C) at pH 7.5” value [3] of the same compound?
Answer: The value was 7.8 ± 0.1 °C.

Question: And the “α2^0, thermal volumetric expansivity of the solute” value [4]?
Answer: Its value is 0.33 ± 0.14 cm^3·mol^–1·K^–1.

Question: And the “V2^0, partial molar volume” value [4]?
Answer: The value was 150.0 ± 0.6 cm^3·mol^–1.

Question: What about the “fraction of the ligand that is neutral” value [5] of the same compound?
Answer: The value was 0.08.

Question: And the “log P” value [6]?
Answer: Its value is 2.36.

Question: What about the “ΔTm (°C) at pH 8” value [7] of the same compound?
Answer: Its value is 7.4 ± 0.1 °C.

Question: What about the “log(τ)” value [8] of the same compound?
Answer: The value was “–0.30”.

Question: What about the “ΔGbind, free energy of binding” value ([9]; 25 °C, pH 8) of the same compound?
Answer: Its value is “–40.9 ± 0.3 kJ·mol^–1”.

Question: What about the “ΔSrt, entropic term for loss of ligand rotational and translational degrees of freedom” value [9] of the same compound?
Answer: Its value is -291 J∙mol-1∙K-1.

Question: What about the “Ts, temperature at which the entropy change upon ligand binding is zero” value [9] of the same compound?
Answer: The value was 268 ± 42 K.

Question: And the Kd [9, 12]?
Answer: Its Kd is 0.032 µM and 0.033 µM.

Question: What about the Kd [9, 13] of the same compound?
Answer: Its Kd is 0.05 µM and 0.027 µM.

Question: What about the Kd [9, 14] of the same compound?
Answer: The Kd was 0.084 µM and 0.069 µM.

Question: And the Kd [9, 15]?
Answer: Its Kd is 0.108 µM and 0.115 µM.

Question: What about the “ΔSHE(Ts), hydrophobic-effect contribution to the entropy change upon binding” value [9] of the same compound?
Answer: Its value is 291 ± 34 J∙mol-1∙K-1.

Question: And the IC50 [10]?
Answer: Its IC50 is 0.56 ± 0.02 µM.

Question: Which “Tm (°C) at pH 7.5” value [3] does the source give for `Brc1ccc2n[nH]nc2c1` [5-BrBt] here?
Answer: Its value is 47.17 ± 0.02 °C.

Question: What about the “ΔTm (°C) at pH 7.5” value [3] of the same compound?
Answer: The value was 2.0 ± 0.1 °C.

Question: What about the “α2^0, thermal volumetric expansivity of the solute” value [4] of the same compound?
Answer: The value was 0.14 ± 0.20 cm^3·mol^–1·K^–1.

Question: And the “V2^0, partial molar volume” value [4]?
Answer: Its value is 132.7 ± 0.8 cm^3·mol^–1.

Question: And the “fraction of the ligand that is neutral” value [5]?
Answer: The value was 0.26.

Question: And the “log P” value [6]?
Answer: The value was 1.73.

Question: And the “ΔTm (°C) at pH 8” value [7]?
Answer: The value was 1.8 ± 0.1 °C.

Question: And the “log(τ)” value [8]?
Answer: The value was “–0.41”.

Question: And the “ΔGbind, free energy of binding” value ([9]; 25 °C, pH 8)?
Answer: The value was “–34.4 ± 0.6 kJ·mol^–1”.

Question: And the “ΔSrt, entropic term for loss of ligand rotational and translational degrees of freedom” value [9]?
Answer: Its value is -277 J∙mol-1∙K-1.

Question: What about the “Ts, temperature at which the entropy change upon ligand binding is zero” value [9] of the same compound?
Answer: The value was 281 ± 152 K.

Question: What about the Kd ([9]; iTC200, 15 °C, pH 8, independent experiments separately evaluated) of the same compound?
Answer: Its Kd is 0.88 µM and 0.49 µM.

Question: And the Kd [9, 12]?
Answer: The Kd was 0.73 µM and 0.55 µM.

Question: And the Kd [9, 13]?
Answer: The Kd was 0.93 ± 0.28 µM.

Question: And the ΔG [9, 13]?
Answer: The ΔG was -8.22 ± 0.14 kcal/mol and -8.22 ± 0.359 kcal/mol.

Question: What about the Kd [9, 14] of the same compound?
Answer: Its Kd is 1.27 µM and 0.99 µM.

Question: What about the Kd [9, 15] of the same compound?
Answer: The Kd was 1.33 µM and 1.89 µM.

Question: And the “ΔSother, entropy change assigned to all other processes accompanying ligand binding” value ([9]; ΔSrt + ΔSHE(Ts) + ΔSother = 0)?
Answer: Its value is 157 ± 56 J∙mol-1∙K-1.

Question: What about the “ΔSHE(Ts), hydrophobic-effect contribution to the entropy change upon binding” value [9] of the same compound?
Answer: Its value is 120 ± 56 J∙mol-1∙K-1.

Question: What about the IC50 [10] of the same compound?
Answer: Its IC50 is 26 ± 3 µM.

Question: With `Nc1ncnc2c1ncn2[C@@H]1O[C@H](COP(=O)(O)OP(=O)(O)OP(=O)(O)O)[C@@H](O)[C@H]1O` [ATP] as the compound, how does the Kd [11] read?
Answer: The Kd was 4.3 ± 1.8 µM.
